The conditions of data set [1]: after 1 month, implant with 200 nm membrane in PBS sink, normalized to first time point. The procedure: Data are normalized to the values of day 1.
Urocanic acid was then tested. […] This formulation was loaded into an implant equipped with a 200 nm membrane. The implant was placed in 22 mL solution of PBS (the sink solution). The sink solution was replaced every 40 hours with fresh PBS. […] All results were normalized by the results of the first time point to compensate for the degradation that takes place in the sink solution.

The next data set can be described thus: physchem. Conditions: pH 7.4.
The conditions of data set [2]: pH=5.3.

Structures are written as SMILES. Counter-ions that a name gives are not always drawn. Like-named read-outs stand apart in the source and are kept apart here.

In the case of `CC(C)OC(=O)[C@H](C)N[P@](=O)(CO[C@H](C)Cn1cnc2c(N)ncnc21)Oc1ccccc1` [tenofovir alafenamide fumarate], the “percentage of tenofovir alafenamide in the released mixture of tenofovir derivatives” value in data set [1] is 45%.

The half-life is the time in which the quantity being followed falls by half. A lower half-life goes with rapid decline. `CC(C)OC(=O)[C@H](C)N[P@](=O)(CO[C@H](C)Cn1cnc2c(N)ncnc21)Oc1ccccc1` [tenofovir alafenamide] gave a half-life in the data set “physchem” below 48 h. Besides, in data set [1] (listed as free base tenofovir alafenamide), the “percentage of tenofovir alafenamide in the released mixture of tenofovir derivatives” value stood at 82%. Besides, the “hydrolysis half-life (t1/2)” value in data set [2] was “over 4 months”.

The values above are taken from patent US20230023802A1, “STABILIZED DRUG FORMULATIONS AND METHODS OF LOADING DRUG DELIVERY IMPLANTS” (THE METHODIST HOSPITAL SYSTEM, priority 2019, published 2023).
